Laboratory results published in US9980957B2, “Histone deacetylase (HDAC) inhibitors for the treatment of cancer” (TopoTarget UK Limited, priority 2005, dated 2018).
Like-named read-outs stand apart in the source and are kept apart here.

Assays:
[1] = Phase 1 dose escalation study, safety; assay type: in vivo, human
Procedure: (§1) A Phase 1 open label, dose escalation, safety, pharmacokinetics (PK), and pharmacodynamics (PD) study of PXD-101 was conducted in patients with advanced cancers.
(§2) PXD-101 was administered as a 30-minute intravenous (IV) infusion daily for 5-days every 3-weeks. In a subgroup of patients, PXD-101 was administered orally once, twice or thrice on day 1 only, in course 2 or 3. Acetylation of histones extracted from peripheral blood mononuclear cells (PBMNC) was measured by Western blotting. The PK/PD profile of intravenous and oral PXD-101 was evaluated.
The results of this study are as follows: 34 patients (median age 58 years, range 28-74; 19 male, all ECOG PS≤2) have been treated with a total of 103 cycles of PXD-101 (median 2; range 1 to 13) at 6 dose levels: 150 mg/m^2 (4 patients), 300 mg/m^2 (4 patients), 600 mg/m^2 (6 patients), 900 mg/m^2 (3 patients), 1000 mg/m^2 (12 patients) and 1200 mg/m^2 (5 patients).

[2] = test system: diverse tumor cell lines; experiment: Proliferation of diverse tumor cell lines; assay type: cell-based
[3] = Phase 1 dose escalation study, pharmacokinetics; assay type: in vivo, human; conditions: for half-life / Cmax / bioavailability: human, in vivo
Procedure: as §1, §2

[4] = test system: advanced cancers; experiment: Phase 1 study, tumor reduction in patients with advanced cancers; assay type: in vivo, human; conditions: a patient with epithelial mediastinal thymoma
Procedure: A Phase 1 open label, dose escalation, safety, pharmacokinetics (PK), and pharmacodynamics (PD) study of PXD-101 was conducted in patients with advanced cancers. PXD-101 was administered as a 30-minute intravenous (IV) infusion daily for 5-days every 3-weeks. In a subgroup of patients, PXD-101 was administered orally once, twice or thrice on day 1 only, in course 2 or 3. Acetylation of histones extracted from peripheral blood mononuclear cells (PBMNC) was measured by Western blotting. The PK/PD profile of intravenous and oral PXD-101 was evaluated.

[5] = test system: U266 multiple myeloma cell line; experiment: CellTiter-Glo cell viability assay; assay type: cell-based; conditions: Homo sapiens, U-266, 72 h, read-out: PXD-101 IC50
Procedure: (§3) Percent activity (% activity), was calculated for each test compound as: % activity={(S^c−B)/(S^o−B)}×100
(§4) wherein S^c denotes signal measured in the presence of the compound being tested, S^o denotes signal measured in the absence of the compound being tested, and B denotes the background signal measured in blank wells containing medium only. The IC50 corresponds to the drug concentration which achieves 50% activity of untreated control cultures. IC50 values were calculated using the software package Prism 3.0 (GraphPad Software Inc., San Diego, Calif.) with variable slope option.
(§5) This example reports the effects of PXD-101 on six distinct multiple myeloma cell lines, three plasma cell leukemia cell lines and one plasmacytoma. The cells were incubated with PXD-101 for 72 hours in vitro, and their viability measured by the CellTiter-Glo assay.

[6] = test system: AMO-1 plasmacytoma cell line; experiment: CellTiter-Glo cell viability assay; assay type: cell-based; conditions: Homo sapiens, AMO1, 72 h, read-out: PXD-101 IC50
Procedure: as §3, §4, §5

[7] = test system: L-363 plasma cell leukemia cell line; experiment: CellTiter-Glo cell viability assay; assay type: cell-based; conditions: Homo sapiens, 72 h, read-out: PXD-101 IC50
Procedure: as §3, §4, §5

[8] = test system: RPMI-8226 multiple myeloma cell line; experiment: CellTiter-Glo cell viability assay; assay type: cell-based; conditions: Homo sapiens, 72 h, read-out: PXD-101 IC50
Procedure: as §3, §4, §5

[9] = test system: LP-1 multiple myeloma cell line; experiment: CellTiter-Glo cell viability assay; assay type: cell-based; conditions: Homo sapiens, LP-1, MM t(4;14)(p16;q32), 72 h, read-out: PXD-101 IC50
Procedure: as §3, §4, §5

[10] = test system: SK-MM-2 plasma cell leukemia cell line; experiment: CellTiter-Glo cell viability assay; assay type: cell-based; conditions: Homo sapiens; SK-MM-2, plasma cell leukemia t(11;14)(q13;q32); 72 h; read-out: PXD-101 IC50
Procedure: as §3, §4, §5

[11] = test system: KARPAS-620 plasma cell leukemia cell line; experiment: CellTiter-Glo cell viability assay; assay type: cell-based; conditions: KARPAS-620, plasma cell leukemia t(8;14)(q24;q32); 72 h; read-out: PXD-101 IC50
Procedure: as §3, §4, §5

[12] = test system: KMS-12-BM multiple myeloma cell line; experiment: CellTiter-Glo cell viability assay; assay type: cell-based; conditions: Homo sapiens, MM t(11;14)(q13;q32), 72 h, read-out: PXD-101 IC50
Procedure: as §3, §4, §5

[13] = test system: EJM multiple myeloma cell line; experiment: CellTiter-Glo cell viability assay; assay type: cell-based; conditions: Homo sapiens, 72 h, read-out: PXD-101 IC50
Procedure: as §3, §4, §5

[14] = test system: OPM-2 multiple myeloma cell line; experiment: CellTiter-Glo cell viability assay; assay type: cell-based; conditions: Homo sapiens; OPM-2, MM t(4;14)(p16;q32); 72 h; read-out: PXD-101 IC50
Procedure: as §3, §4, §5

[15] = test system: histone H4 acetylation in peripheral blood mononuclear cells; experiment: Phase 1 study, pharmacodynamics: acetylation of histones from PBMNC by Western blotting; assay type: in vivo, human
Procedure: as §2

[16] = test system: six multiple myeloma cell lines, three plasma cell leukemia cell lines and one plasmacytoma; experiment: CellTiter-Glo cell viability assay, all ten cell lines; assay type: cell-based; conditions: 72 h
Procedure: as §3, §4, §5

[17] = test system: A2780 ovarian cancer subcutaneous xenograft; experiment: A2780 ovarian cancer subcutaneous xenograft model; assay type: in vivo; conditions: AVASTIN 5 mg/kg on day 4, mice
Procedure: The object of this study was to investigate the tumour growth inhibitory effect of AVASTIN® (bevacizumab) in an A2780 ovarian cancer subcutaneous xenograft model. Mice were treated on day 4 with AVASTIN® (bevacizumab) (5 mg/kg). The chemosensitising effect of PXD-101 in combination with AVASTIN® (bevacizumab) was also investigated.

In the case of O=C(/C=C/c1cccc(S(=O)(=O)Nc2ccccc2)c1)NO [PXD-101], the “Patients with dose limiting toxicity” value ([1]; both, human, in vivo, iv, 5 days every 3 weeks) is reported as 3 patients, the “Most commonly reported other adverse events” value ([1]; in vivo) is reported as “fatigue, nausea, vomiting, constipation, diarrhea and injection site reactions” and the Dose limiting toxicity ([1]; in vivo, iv) is reported as “short-lived atrial fibrillation”. The “Tolerability, in words” value ([1]; in vivo, iv) was “well tolerated”, the “Tolerability, in words” value ([1]; in vivo, po) was “well tolerated” and the MTD ([1]; once daily for 5-days 30-minute IV infusion) was 1000 mg/m^2. For the same compound, the IC50 [2] was 0.08 to 2.43 µM, the “Accumulation, oral” value ([3]; 8-hour interval dosing) was “tendency towards accumulation” and the “Accumulation, oral” value ([3]; 12-hour interval dosing) was “no accumulation”. It also gave a half-life ([3]; intravenous, one patient outside the range, read-out: t1/2, one patient (converted)) of 1.8 h, a half-life ([3]; iv, patients, IV infusion, read-out: Terminal elimination half-life) of 0.5 to 1 h and a Cmax ([3]; iv, reached at the end of the infusion) of 6500 to 55800 ng/mL. The Cmax ([3]; po, 1000 mg/m2, b.i.d. 1000 mg/m^2 oral on a single day, 5 patients) was 1100 to 2900 ng/mL, the bioavailability ([3]; po, 1000 mg/m2, b.i.d. 1000 mg/m^2 oral on a single day, 5 patients, SD 12.5%, read-out: Mean oral bioavailability) was 42.8% and the half-life ([3]; po, 1000 mg/m2, b.i.d. 1000 mg/m^2 oral on a single day, 5 patients, read-out: t1/2) was 1.5 to 2 h. For the same compound, the Cmax ([3]; po, 1000 mg/m2, t.i.d. 1000 mg/m^2 oral on a single day, 2 patients) was 1300 to 1800 ng/mL, the half-life ([3]; po, 1000 mg/m2, t.i.d. 1000 mg/m^2 oral on a single day, 2 patients, read-out: t1/2) was 2 to 2.6 h and the bioavailability ([3]; po, oral single dose, read-out: Mean single dose oral bioavailability) was 33%. For the same compound, the “Oral bioavailability, in words” value ([3]; patients) was “orally bioavailable”, the “PK dose dependence, in words” value ([3]; patients, IV) was “dose-proportional” and the “Accumulation on repeated IV dosing” value ([3]; repeated IV dosing) was “no drug accumulation”. The “Reduction of mediastinal disease” value [4] was 70%, the “Time on the study” value [4] was “over 1 year” and the IC50 [5] was 0.141 µM. The IC50 [6] was 0.029 µM, the IC50 [7] was 0.1 µM and the IC50 [8] was 0.196 µM. For the same compound, the IC50 [9] was 0.045 µM, the IC50 [10] was 0.028 µM and the IC50 [11] was 0.112 µM. It also gave an IC50 [12] of 0.088 µM, an IC50 [13] of 0.123 µM and an IC50 [14] of 0.106 µM. The “Duration of histone H4 hyperacetylation” value ([15]; IV infusion, dose-dependent) was 4 to 24 h, the “Duration of histone acetylation above baseline” value ([15]; oral 1000 mg/m^2) was 5 to 10 h and the “Histone acetylation above baseline” value ([15]; oral 1000 mg/m^2) was 40-50%. It also gave an IC50 ([16]; mean of ten cell lines, read-out: IC50, mean of the ten cell lines) of 0.097 µM and an IC50 ([16]; ten cell lines, read-out: IC50, range over the ten cell lines) of 0.028 to 0.196 µM.

In the case of “AVASTIN® (bevacizumab): recombinant humanized antibody to Vascular Endothelial Growth Factor (VEGF)”, the “Tumour growth inhibition, in words” value [17] is reported as “significant growth inhibition”.
